{"source": "paper doi:10.1101/2023.11.23.568446v1", "about": "(bioRxiv, 2023)", "key": {"DHA10 (CRAB)": {"test_system": "DHA10 (CRAB)", "assay": "Checkerboard assay", "type": "cell-based, Acinetobacter baumannii", "conditions": "for MIC in combination, Antibiotic: in combination with AIG-R5"}, "A. baumannii ATCC 17978": {"test_system": "A. baumannii ATCC 17978", "assay": "Checkerboard assay", "type": "cell-based, Acinetobacter baumannii", "conditions": "for MIC alone, Antibiotic: A. baumannii ATCC 17978"}, "A. baumannii isolates": {"test_system": "A. baumannii isolates", "assay": "Antibiotic resistance profile of isolates", "type": "cell-based, Acinetobacter baumannii"}, "A. baumannii biofilms": {"test_system": "A. baumannii biofilms", "conditions": "at 128µM (64×MIC); ref Kim et al., 2018; cited from earlier work"}}, "note": "Bridge positions count the residues as written; N and C are the ends. Square brackets hold non-standard residues; d marks the D form. Peptide text beside a SMILES is read from it. * marks the point of attachment. X1 = CC[C@H](C)CCCCC(=O)*; Dab = NCC[C@H](N)C(=O)O", "data": [{"molecule": "NCC[C@H](O)C(=O)N[C@@H]1C[C@H](N)[C@@H](O[C@H]2O[C@H](CN)[C@@H](O)[C@H](O)[C@H]2O)[C@H](O)[C@H]1O[C@H]1O[C@H](CO)[C@@H](O)[C@H](N)[C@H]1O", "note": "[Amikacin]", "values": [{"measurement": "MIC in combination, Antibiotic", "setting": "DHA10 (CRAB)", "result": 256, "unit": "µg/mL"}, {"measurement": "MIC alone, Antibiotic", "setting": "A. baumannii ATCC 17978", "result": 2, "unit": "µg/mL"}, {"measurement": "MIC in combination, Antibiotic", "setting": "A. baumannii ATCC 17978; in combination with AIG-R1", "result": 0.5, "unit": "µg/mL"}, {"measurement": "MIC in combination, Antibiotic", "setting": "A. baumannii ATCC 17978; in combination with AIG-R4", "result": 1, "unit": "µg/mL"}, {"measurement": "MIC in combination, Antibiotic", "setting": "A. baumannii ATCC 17978; in combination with AIG-R5", "result": 0.5, "unit": "µg/mL"}]}, {"molecule": "CC[C@H](C)CCCCC(=O)N[C@@H](CCN)C(=O)N[C@H](C(=O)N[C@@H](CCN)C(=O)N[C@H]1CCNC(=O)[C@H]([C@@H](C)O)NC(=O)[C@H](CCN)NC(=O)[C@H](CCN)NC(=O)[C@H](CC(C)C)NC(=O)[C@@H](CC(C)C)NC(=O)[C@H](CCN)NC1=O)[C@@H](C)O", "note": "[Colistin] (X1-[Dab]T[Dab][Dab][Dab][dL]L[Dab][Dab]T; lactam 4-C (inferred); N-terminus assumed)", "values": [{"measurement": "Antibiotic resistance profile", "setting": "A. baumannii isolates; strain 17978", "result": "S"}, {"measurement": "Antibiotic resistance profile", "setting": "A. baumannii isolates; strain Ci 3", "result": "R"}, {"measurement": "Antibiotic resistance profile", "setting": "A. baumannii isolates; strain Ci 6", "result": "R"}, {"measurement": "Antibiotic resistance profile", "setting": "A. baumannii isolates; strain Ci 7", "result": "R"}, {"measurement": "Antibiotic resistance profile", "setting": "A. baumannii isolates; strain DHA 8", "result": "R"}, {"measurement": "Antibiotic resistance profile", "setting": "A. baumannii isolates; strain DHA 10", "result": "R"}, {"measurement": "Antibiotic resistance profile", "setting": "A. baumannii isolates; strain P-1119", "result": "R"}, {"measurement": "Antibiotic resistance profile", "setting": "A. baumannii isolates; strain P-1131", "result": "R"}, {"measurement": "Antibiotic resistance profile", "setting": "A. baumannii isolates; strain P-1139", "result": "R"}, {"measurement": "Antibiotic resistance profile", "setting": "A. baumannii isolates; strain P-1169", "result": "R"}, {"measurement": "Antibiotic resistance profile", "setting": "A. baumannii isolates; strain P-1182", "result": "R"}, {"measurement": "MIC alone, Antibiotic", "setting": "A. baumannii ATCC 17978", "result": 1, "unit": "µg/mL"}, {"measurement": "MIC in combination, Antibiotic", "setting": "A. baumannii ATCC 17978; in combination with AIG-R1", "result": 0.25, "unit": "µg/mL"}, {"measurement": "MIC in combination, Antibiotic", "setting": "A. baumannii ATCC 17978; in combination with AIG-R4", "result": 0.25, "unit": "µg/mL"}, {"measurement": "MIC in combination, Antibiotic", "setting": "A. baumannii ATCC 17978; in combination with AIG-R5", "result": 0.5, "unit": "µg/mL"}]}, {"molecule": "C[C@@H](O)[C@H]1C(=O)N2C(C(=O)O)=C(SCCN=CN)C[C@H]12", "note": "[Imipenem]", "values": [{"measurement": "Antibiotic resistance profile", "setting": "A. baumannii isolates; strain 17978", "result": "S"}, {"measurement": "Antibiotic resistance profile", "setting": "A. baumannii isolates; strain Ci 3", "result": "R"}, {"measurement": "Antibiotic resistance profile", "setting": "A. baumannii isolates; strain Ci 6", "result": "R"}, {"measurement": "Antibiotic resistance profile", "setting": "A. baumannii isolates; strain Ci 7", "result": "R"}, {"measurement": "Antibiotic resistance profile", "setting": "A. baumannii isolates; strain DHA 8", "result": "R"}, {"measurement": "Antibiotic resistance profile", "setting": "A. baumannii isolates; strain DHA 10", "result": "R"}, {"measurement": "Antibiotic resistance profile", "setting": "A. baumannii isolates; strain P-1119", "result": "R"}, {"measurement": "Antibiotic resistance profile", "setting": "A. baumannii isolates; strain P-1131", "result": "R"}, {"measurement": "Antibiotic resistance profile", "setting": "A. baumannii isolates; strain P-1139", "result": "R"}, {"measurement": "Antibiotic resistance profile", "setting": "A. baumannii isolates; strain P-1169", "result": "R"}, {"measurement": "Antibiotic resistance profile", "setting": "A. baumannii isolates; strain P-1182", "result": "R"}, {"measurement": "MIC alone, Antibiotic", "setting": "A. baumannii ATCC 17978", "result": 2, "unit": "µg/mL"}, {"measurement": "MIC in combination, Antibiotic", "setting": "A. baumannii ATCC 17978; in combination with AIG-R1", "result": 1, "unit": "µg/mL"}, {"measurement": "MIC in combination, Antibiotic", "setting": "A. baumannii ATCC 17978; in combination with AIG-R4", "result": 1, "unit": "µg/mL"}, {"measurement": "MIC in combination, Antibiotic", "setting": "A. baumannii ATCC 17978; in combination with AIG-R5", "result": 1, "unit": "µg/mL"}]}, {"molecule": "NC[C@H]1O[C@H](O[C@H]2[C@H](O)[C@@H](O[C@H]3O[C@H](CO)[C@@H](O)[C@H](N)[C@H]3O)[C@H](N)C[C@@H]2N)[C@H](O)[C@@H](O)[C@@H]1O.O=S(=O)(O)O", "note": "[Kanamycin sulphate]", "values": [{"measurement": "MIC alone, Antibiotic", "setting": "A. baumannii ATCC 17978", "result": 4, "unit": "µg/mL"}, {"measurement": "MIC in combination, Antibiotic", "setting": "A. baumannii ATCC 17978; in combination with AIG-R1", "result": 2, "unit": "µg/mL"}, {"measurement": "MIC in combination, Antibiotic", "setting": "A. baumannii ATCC 17978; in combination with AIG-R4", "result": 2, "unit": "µg/mL"}, {"measurement": "MIC in combination, Antibiotic", "setting": "A. baumannii ATCC 17978; in combination with AIG-R5", "result": 1, "unit": "µg/mL"}]}, {"molecule": "C[C@@H](O)[C@H]1C(=O)N2C(C(=O)O)=C(S[C@@H]3CN[C@H](C(=O)N(C)C)C3)[C@H](C)[C@H]12", "note": "[Meropenem]", "values": [{"measurement": "Antibiotic resistance profile", "setting": "A. baumannii isolates; strain 17978", "result": "S"}, {"measurement": "Antibiotic resistance profile", "setting": "A. baumannii isolates; strain Ci 3", "result": "R"}, {"measurement": "Antibiotic resistance profile", "setting": "A. baumannii isolates; strain Ci 6", "result": "R"}, {"measurement": "Antibiotic resistance profile", "setting": "A. baumannii isolates; strain Ci 7", "result": "R"}, {"measurement": "Antibiotic resistance profile", "setting": "A. baumannii isolates; strain DHA 8", "result": "R"}, {"measurement": "Antibiotic resistance profile", "setting": "A. baumannii isolates; strain DHA 10", "result": "R"}, {"measurement": "Antibiotic resistance profile", "setting": "A. baumannii isolates; strain P-1119", "result": "R"}, {"measurement": "Antibiotic resistance profile", "setting": "A. baumannii isolates; strain P-1131", "result": "R"}, {"measurement": "Antibiotic resistance profile", "setting": "A. baumannii isolates; strain P-1139", "result": "R"}, {"measurement": "Antibiotic resistance profile", "setting": "A. baumannii isolates; strain P-1169", "result": "R"}, {"measurement": "Antibiotic resistance profile", "setting": "A. baumannii isolates; strain P-1182", "result": "R"}]}, {"molecule": "CO[C@H]1/C=C/O[C@@]2(C)Oc3c(C)c(O)c4c(O)c(cc(O)c4c3C2=O)NC(=O)/C(C)=C\\C=C\\[C@H](C)[C@H](O)[C@@H](C)[C@@H](O)[C@@H](C)[C@H](OC(C)=O)[C@@H]1C", "note": "[Rifamycin]", "values": [{"measurement": "MIC alone, Antibiotic", "setting": "A. baumannii ATCC 17978", "result": 4, "unit": "µg/mL"}, {"measurement": "MIC in combination, Antibiotic", "setting": "A. baumannii ATCC 17978; in combination with AIG-R1", "result": 2, "unit": "µg/mL"}, {"measurement": "MIC in combination, Antibiotic", "setting": "A. baumannii ATCC 17978; in combination with AIG-R4", "result": 2, "unit": "µg/mL"}, {"measurement": "MIC in combination, Antibiotic", "setting": "A. baumannii ATCC 17978; in combination with AIG-R5", "result": 2, "unit": "µg/mL"}]}, {"molecule": "NC[C@H]1O[C@H](O[C@H]2[C@H](O)[C@@H](O[C@H]3O[C@H](CO)[C@@H](O)[C@H](N)[C@H]3O)[C@H](N)C[C@@H]2N)[C@H](N)C[C@@H]1O", "note": "[Tobramycin]", "values": [{"measurement": "MIC alone, Antibiotic", "setting": "DHA10 (CRAB)", "result": 512, "unit": "µg/mL"}, {"measurement": "MIC in combination, Antibiotic", "setting": "DHA10 (CRAB)", "result": 128, "unit": "µg/mL"}, {"measurement": "MIC alone, Antibiotic", "setting": "A. baumannii ATCC 17978", "result": 2, "unit": "µg/mL"}, {"measurement": "MIC in combination, Antibiotic", "setting": "A. baumannii ATCC 17978; in combination with AIG-R1", "result": 1, "unit": "µg/mL"}, {"measurement": "MIC in combination, Antibiotic", "setting": "A. baumannii ATCC 17978; in combination with AIG-R4", "result": 1, "unit": "µg/mL"}, {"measurement": "MIC in combination, Antibiotic", "setting": "A. baumannii ATCC 17978; in combination with AIG-R5", "result": 0.5, "unit": "µg/mL"}]}, {"molecule": "magainin 2", "values": [{"measurement": "degraded pre-formed biofilms", "setting": "A. baumannii biofilms", "result": 33.3, "unit": "%"}]}]}
